Experimental data: ChEMBL document CHEMBL4393732, “Influence of nisin hinge-region variants on lantibiotic immunity and resistance proteins” (Bioorg Med Chem, 2019)
Calls of active or inactive are those of the source. The rule behind the calls is not given here.

Experiments:
Lactococcus lactis [1] = test: Growth inhibition of nisin-sensitive Lactococcus lactis NZ9000Cm incubated for 5 hrs by optical density based plate reader assay; assay type: functional, organism-based
Lactococcus lactis [2] = test: Induction of pore formation in Lactococcus lactis NZ9000Cm assessed as increase in florescence intensity at 3 times antibacterial IC50 measured after 200 secs by sytox green-based fluorescence assay; assay type: functional, organism-based
[3] = (§1) Inhibition of Lactococcus lactis ATP-binding cassette transporter NisFEG harboring in Lactococcus lactis NZ9000 assessed as decrease in NisFEG induced resistance measured as increase in growth inhibition incubated for 5 hrs by optical density based plate reader assay
[4] = (§2) Inhibition of Lactococcus lactis Nis1 harboring in Lactococcus lactis NZ9000 assessed as decrease in Nis1 induced resistance measured as increase in growth inhibition incubated for 5 hrs by optical density based plate reader assay
[5] = Inhibition of Streptococcus agalactiae COH1 NSR transfected in Lactococcus lactis NZ9000 assessed as decrease in NSR-induced resistance by measuring increase in growth inhibition incubated for 5 hrs by optical density based plate reader assay
[6] = Inhibition of Streptococcus agalactiae COH1 NsrFP transfected in Lactococcus lactis NZ9000 assessed as decrease in NsrFP-induced resistance by measuring increase in growth inhibition incubated for 5 hrs by optical density based plate reader assay
[7] = as §2, with “Resistance ratio of IC50 for Inhibition” for “Inhibition”, “inhibition to IC50 for growth inhibition of nisin-sensitive Lactococcus lactis NZ9000Cm” for “inhibition”
[8] = as §1, with “Resistance ratio of IC50 for inhibition” for “Inhibition”, “inhibition to IC50 for growth inhibition of nisin-sensitive Lactococcus lactis NZ9000Cm” for “inhibition”
[9] = (§3) Resistance ratio of IC50 for inhibition of Streptococcus agalactiae COH1 NSR transfected in Lactococcus lactis NZ9000 assessed as decrease in NSR induced resistance measured as increase in growth inhibition to IC50 for growth inhibition of nisin-sensitive Lactococcus lactis NZ9000Cm incubated for 5 hrs by optical density based plate reader assay
[10] = as §3, with “NsrFP” for “NSR”
Lactococcus lactis [11] = test: Induction of pore formation in Lactococcus lactis NZ9000Cm assessed as increase in florescence intensity at 3 times antibacterial IC50 measured after 200 secs by sytox green-based fluorescence assay relative to control; assay type: functional

Compound	IC50 (Lactococcus lactis [1]) [nM]	Activity (Lactococcus lactis [2])	IC50 [3] [nM]	IC50 [4] [nM]	IC50 [5] [nM]	IC50 [6] [nM]	Ratio IC50 [7]	Ratio IC50 [8]	Ratio IC50 [9]	Ratio IC50 [10]	Activity (Lactococcus lactis [11]) [%]
C=C(NC(=O)[C@@H](NC(=O)[C@H](Cc1cnc[nH]1)NC(=O)[C@@H](NC(=O)[C@H](CO)NC(=O)[C@@H]1CS[C@@H](C)[C@@H]2NC(=O)[C@H](C)NC(=O)[C@@H](NC(=O)[C@@H](NC(=O)[C@@H](NC(=O)[C@H](CCCCN)NC(=O)[C@H](CCSC)NC(=O)[C@H](CC(N)=O)NC(=O)[C@@H]3CS[C@@H](C)[C@H](NC(=O)[C@H](CCCCN)NC(=O)[C@@H]4CS[C@@H](C)[C@H](NC(=O)[C@@H]5CSC[C@H](NC(=O)/C(=C/C)NC(=O)[C@@H](N)[C@@H](C)CC)C(=O)N[C@@H]([C@@H](C)CC)C(=O)NC(=C)C(=O)N[C@@H](CC(C)C)C(=O)N5)C(=O)N5CCC[C@H]5C(=O)NCC(=O)N4)C(=O)NCC(=O)N[C@@H](C)C(=O)N[C@@H](CC(C)C)C(=O)N[C@@H](CCSC)C(=O)NCC(=O)N3)[C@@H](C)CC)C(C)C)[C@H](C)SC[C@H](NC2=O)C(=O)N[C@@H](Cc2cnc[nH]2)C(=O)N1)[C@@H](C)CC)C(C)C)C(=O)N[C@@H](CCCCN)C(=O)O	22.3	Active	36.9	73.2	64.8	44.4	3.29	1.66	2.91	1.99	
C=C(NC(=O)[C@@H](NC(=O)[C@H](Cc1cnc[nH]1)NC(=O)[C@@H](NC(=O)[C@H](CO)NC(=O)[C@@H]1CS[C@@H](C)[C@@H]2NC(=O)[C@H](C)NC(=O)[C@@H](NC(=O)[C@H](CCCCN)NC(=O)[C@H](CCSC)NC(=O)[C@@H](NC(=O)[C@@H](NC(=O)[C@H](CC(N)=O)NC(=O)[C@@H]3CS[C@@H](C)[C@H](NC(=O)[C@H](CCCCN)NC(=O)[C@@H]4CS[C@@H](C)[C@H](NC(=O)[C@@H]5CSC[C@H](NC(=O)/C(=C/C)NC(=O)[C@@H](N)[C@@H](C)CC)C(=O)N[C@@H]([C@@H](C)CC)C(=O)NC(=C)C(=O)N[C@@H](CC(C)C)C(=O)N5)C(=O)N5CCC[C@H]5C(=O)NCC(=O)N4)C(=O)NCC(=O)N[C@@H](C)C(=O)N[C@@H](CC(C)C)C(=O)N[C@@H](CCSC)C(=O)NCC(=O)N3)[C@@H](C)CC)C(C)C)[C@H](C)SC[C@H](NC2=O)C(=O)N[C@@H](Cc2cnc[nH]2)C(=O)N1)[C@@H](C)CC)C(C)C)C(=O)N[C@@H](CCCCN)C(=O)O	8.17		107	77.3	102	121	9.46	13.1	12.4	14.8	15
C=C(NC(=O)[C@@H](NC(=O)[C@H](Cc1cnc[nH]1)NC(=O)[C@@H](NC(=O)[C@H](CO)NC(=O)[C@@H]1CS[C@@H](C)[C@@H]2NC(=O)[C@H](C)NC(=O)[C@@H](NC(=O)[C@H](CC(N)=O)NC(=O)[C@@H]3CS[C@@H](C)[C@H](NC(=O)[C@H](CCCCN)NC(=O)[C@@H]4CS[C@@H](C)[C@H](NC(=O)[C@@H]5CSC[C@H](NC(=O)/C(=C/C)NC(=O)[C@@H](N)[C@@H](C)CC)C(=O)N[C@@H]([C@@H](C)CC)C(=O)NC(=C)C(=O)N[C@@H](CC(C)C)C(=O)N5)C(=O)N5CCC[C@H]5C(=O)NCC(=O)N4)C(=O)NCC(=O)N[C@@H](C)C(=O)N[C@@H](CC(C)C)C(=O)N[C@@H](CCSC)C(=O)NCC(=O)N3)[C@H](C)SC[C@H](NC2=O)C(=O)N[C@@H](Cc2cnc[nH]2)C(=O)N1)[C@@H](C)CC)C(C)C)C(=O)N[C@@H](CCCCN)C(=O)O	43.4	inactive	72.1	109	221	213	2.5	1.66	5.09	4.9	
